Values joined by “and” are separate entries in the source; they are usually repeats but may differ in a detail not shown here. Identical values can stand only once. Like-named read-outs stand apart in the source and are kept apart here.
Assays:
OCT3 [1] = system: OCT3; set-up: method as in PMID 23506881; details: cited from earlier work
OCT1 [2] = molecular target: T1, OCT1 (Homo sapiens, UniProt O15245); set-up: method as in PMID 15389554; details: microtiter assay; cited from earlier work
T1 construct: containing the full length SLC22A1 cDNA (NM_003057) encoding the human OCT1 protein; expressed in transfected cells
T1 sequence (O15245 1-554): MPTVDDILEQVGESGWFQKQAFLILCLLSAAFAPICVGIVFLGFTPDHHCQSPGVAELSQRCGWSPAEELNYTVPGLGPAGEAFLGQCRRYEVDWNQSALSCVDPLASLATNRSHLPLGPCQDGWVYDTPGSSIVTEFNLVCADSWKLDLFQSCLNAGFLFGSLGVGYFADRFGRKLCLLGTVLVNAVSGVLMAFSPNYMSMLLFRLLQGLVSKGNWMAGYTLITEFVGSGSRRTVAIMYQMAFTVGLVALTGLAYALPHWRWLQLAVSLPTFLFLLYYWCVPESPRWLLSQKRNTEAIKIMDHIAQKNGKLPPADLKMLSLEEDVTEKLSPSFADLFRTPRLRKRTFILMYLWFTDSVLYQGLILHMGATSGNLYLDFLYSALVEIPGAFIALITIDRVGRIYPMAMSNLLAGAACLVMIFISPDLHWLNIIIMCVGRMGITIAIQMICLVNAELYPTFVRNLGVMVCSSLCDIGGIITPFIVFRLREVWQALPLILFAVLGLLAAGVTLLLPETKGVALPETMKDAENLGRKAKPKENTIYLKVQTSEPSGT

OCT1 [3] = molecular target: T1, OCT1; test: Confocal laser scanning microscopy of ASP+ uptake, HEK-OCT1; assay type: cell-based; details: compound 5 15 μM; TPA 200 μM; ASP+ 1 μM
Description: (§1) HEK-Co, HEK-OCT1 and HEK-OCT3 cells were seeded into 8-well μ-Slides (Ibidi, Munich, Germany) (2 · 10^4 cells/well) and allowed to attach for 48 hours. Prior to the staining procedure, the medium was replaced by PBS and the DNA probe Draq5 (5 μM) (Biostatus, Shepshed, UK) was added to each well. […] Subsequently, ASP^+ was added to reach a concentration of 1 μM, and the cells were incubated for 5 minutes in the dark. Imaging was performed with an Axiovert 200 M confocal microscope coupled to a Zeiss LSM 510 scanning device (Carl Zeiss, Oberkochen, Germany) using a Plan-Apochromat 63x/1.40 oil immersion objective. Draq5 was excited at 633 nm and fluorescence was detected using a 650 nm long-pass filter, ASP^+ was excited at 488 nm and detected using a 565/35 nm band-pass filter.

OCT1 [4] = molecular target: T1, OCT1; test: Flow cytometric ASP+-uptake inhibition, HEK-OCT1; assay type: cell-based; details: HEK-OCT1; 1 μM ASP+; ± SEM (N = 3); read-out: IC50, inhibition of ASP+-uptake
Description: (§2) The previously described fluorescent substrate of organic cation transporters, 4-(4-dimethylaminostyryl)-N-methylpyridinium (ASP^+), was used to determine the function of OCT1 and OCT3 by flow cytometry in the absence and the presence of bendamustine and selected bendamustine esters. HEK293 cells expressing the transporter of interest were trypsinized and washed twice with PBS, prior to re-suspension of 0.5 · 10^6 cells in 500 μL of PBS containing 2% (v/v) FCS. The cells were incubated with ASP^+ (100 μM stock solution in PBS containing 10% DMSO) for 5 minutes, allowing for cellular accumulation, and subsequently analyzed with a FACSCalibur flow cytometer. ASP^+ was excited at 488 nm and the fluorescence was measured using a 530/30 nm and a 585/42 band-pass filter. At least 1 · 10^4 single cells were analyzed by appropriate FSC/SSC gating.
(§3) The cells were pre-incubated with the respective test compound at different concentrations at room temperature for 10 minutes. Afterwards, ASP^+ was added to a final concentration of 1 μM, and the samples were incubated at 37°C in the dark for 5 minutes. Subsequently, the cells were washed, re-suspended in ice-cold PBS/FCS and stored on ice in the dark until measurement.
(§4) The normalized mean fluorescence intensities of the OCT expressing cells, set to 100% in the absence of an inhibitor, were calculated by subtracting the mean fluorescence intensity of unspecific ASP^+ uptake into HEK-Co control cells. The normalized fluorescence intensities in the presence of an inhibitor were plotted against the logarithm of the concentrations of the test compounds to calculate IC50 values. The “log (inhibitor) vs. normalized response-variable slope” equation of GraphPad Prism 5.01 was used for this purpose.

OCT3 [5] = molecular target: T2, OCT3 (Homo sapiens, UniProt O75751); test: Confocal laser scanning microscopy of ASP+ uptake, HEK-OCT3; assay type: cell-based; details: compound 5 15 μM; TPA 200 μM; ASP+ 1 μM
T2 construct: expressed in transfected cells; host or cells: HEK293 (HEK-OCT3)
T2 sequence (O75751 1-556): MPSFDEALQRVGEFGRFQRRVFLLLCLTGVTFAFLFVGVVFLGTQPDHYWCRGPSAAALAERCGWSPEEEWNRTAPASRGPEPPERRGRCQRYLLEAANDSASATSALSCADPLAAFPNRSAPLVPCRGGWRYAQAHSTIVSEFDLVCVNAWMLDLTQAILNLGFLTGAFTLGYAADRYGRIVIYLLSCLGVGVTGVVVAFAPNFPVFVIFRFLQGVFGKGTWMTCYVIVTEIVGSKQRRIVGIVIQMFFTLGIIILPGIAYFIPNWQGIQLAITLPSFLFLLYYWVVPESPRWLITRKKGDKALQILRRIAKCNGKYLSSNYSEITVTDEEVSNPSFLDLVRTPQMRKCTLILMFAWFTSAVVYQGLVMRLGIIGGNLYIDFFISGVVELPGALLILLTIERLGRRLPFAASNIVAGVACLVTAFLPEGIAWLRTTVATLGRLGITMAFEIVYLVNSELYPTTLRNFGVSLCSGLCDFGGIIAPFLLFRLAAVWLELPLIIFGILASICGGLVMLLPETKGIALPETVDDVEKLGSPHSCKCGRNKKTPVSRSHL
Description: as §1

OCT3 [6] = system: OCT3; set-up: method as in PMID 23982114; details: microtiter assay; cited from earlier work
OCT3 [7] = molecular target: T2, OCT3; test: Flow cytometric ASP+-uptake inhibition, HEK-OCT3; assay type: cell-based; details: HEK-OCT3; 1 μM ASP+; ± SEM (N = 3); read-out: IC50, inhibition of ASP+-uptake
Description: as §2, §3, §4

OCT3 [8] = molecular target: T2, OCT3; test: Michaelis-Menten kinetics of ASP+ uptake, HEK-OCT3; assay type: cell-based
Description: as §2
(§5) Subsequently, two volumes of an ice-cold 200 μM solution of the standard inhibitor of OCT1 and OCT3, tetrapentyl ammonium (TPA), in PBS/FCS were added to one volume of cell suspension. The mixture was immediately analyzed. The mean fluorescence intensities (MFI) were calculated using FlowJo V10, and the difference between total (HEK-OCT1 or HEK-OCT3 cells) and unspecific (HEK-Co cells) uptake was plotted as specific uptake against the concentration of ASP^+. […] Km was calculated according to the Michaelis-Menten equation using GraphPad Prism 5.01.

OCT1 [9] = molecular target: T1, OCT1; test: Michaelis-Menten kinetics of ASP+ uptake, HEK-OCT1; assay type: cell-based
Description: as §2, §5

OCT1 [10] = details: cited from earlier work

O=C1c2c(O)ccc(O)c2C(=O)c2c(NCCNCCO)ccc(NCCNCCO)c21 [mitoxantrone]
IC50 (OCT3 [1]): 440 µM

CCCCC[N+](CCCCC)(CCCCC)CCCCC [TPA, tetrapentyl ammonium, reference compound]
IC50 (OCT1 [2]): 7.9 µM | effect on OCT1 activity (ASP+ uptake, imaging) (OCT1 [3]): inhibited | IC50 (OCT1 [4]): 6.04 µM and 6 µM | effect on OCT3 activity (ASP+ uptake, imaging) (OCT3 [5]): inhibited | IC50 (OCT3 [6]): 28 µM | IC50 (OCT3 [7]): 19.9 ± 2.2 µM

CN(C)c1ccc(C=Cc2cc[n+](C)cc2)cc1.[I-] [ASP^+, 4-[4-(dimethylamino)styryl]-N-methylpyridinium iodide]
vmax (maximal uptake rate) (OCT3 [8]): 5321 ± 89 MFI/(10^4 cells · min) | vmax (maximal uptake rate) (OCT1 [9]): 2808 ± 78 MFI/(10^4 cells · min)

N.N.[Cl][Pt][Cl] [cisplatin]
IC50 (OCT1 [10]): > 100 µM
